One series deals with male rats. Briefly: Fertility study in male rats. Format: in vivo, rat.
The test system of series [1] is in vitro chromosome aberration assay. In words: In vitro chromosome aberration assay. Format: cell-based.
A further series relates to BCRP/OATP1B1. In words: Co-administration of ERLEADA with rosuvastatin (BCRP/OATP1B1 substrate). The conditions noted are these: in vivo.
Series [2] relates to non-castrate hormone-sensitive and bicalutamide-resistant human prostate cancer xenograft models. The conditions noted are these: Clegg et al. Cancer Res. 2012; cited from earlier work.
Series [3] deals with T1, CYP3A4 (Homo sapiens, UniProt P08684). Briefly: In vitro CYP inhibition.
T1 sequence (P08684 whole entry): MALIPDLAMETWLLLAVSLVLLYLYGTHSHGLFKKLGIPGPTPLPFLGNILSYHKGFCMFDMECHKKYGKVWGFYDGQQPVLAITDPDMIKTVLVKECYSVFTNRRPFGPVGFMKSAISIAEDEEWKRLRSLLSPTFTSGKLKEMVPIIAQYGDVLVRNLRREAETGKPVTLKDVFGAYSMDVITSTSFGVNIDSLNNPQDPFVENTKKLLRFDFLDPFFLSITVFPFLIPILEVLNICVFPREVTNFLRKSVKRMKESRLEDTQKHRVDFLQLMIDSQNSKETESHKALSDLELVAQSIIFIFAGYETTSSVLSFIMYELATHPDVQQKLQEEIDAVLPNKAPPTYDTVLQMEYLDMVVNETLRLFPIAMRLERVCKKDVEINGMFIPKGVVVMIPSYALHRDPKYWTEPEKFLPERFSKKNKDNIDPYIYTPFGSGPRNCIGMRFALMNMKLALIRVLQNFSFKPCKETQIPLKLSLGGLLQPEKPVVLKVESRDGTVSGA
The target in series [4] is T1, CYP3A4. Briefly: Contribution of CYP3A4 in the metabolism of apalutamide. Also noted: endogenous in cells; host or cells: human subjects, in vivo. Conditions: estimated. An excerpt: Metabolism is the main route of elimination of apalutamide.
Series [5] concerns the target organic anion transporter 1 (Homo sapiens, UniProt Q4U2R8). In words: In vitro transporter inhibition.
In the next series the target is P-gp (Homo sapiens, UniProt P08183). Briefly: In vitro transporter substrate study.
Chain of P-gp (P08183 whole entry): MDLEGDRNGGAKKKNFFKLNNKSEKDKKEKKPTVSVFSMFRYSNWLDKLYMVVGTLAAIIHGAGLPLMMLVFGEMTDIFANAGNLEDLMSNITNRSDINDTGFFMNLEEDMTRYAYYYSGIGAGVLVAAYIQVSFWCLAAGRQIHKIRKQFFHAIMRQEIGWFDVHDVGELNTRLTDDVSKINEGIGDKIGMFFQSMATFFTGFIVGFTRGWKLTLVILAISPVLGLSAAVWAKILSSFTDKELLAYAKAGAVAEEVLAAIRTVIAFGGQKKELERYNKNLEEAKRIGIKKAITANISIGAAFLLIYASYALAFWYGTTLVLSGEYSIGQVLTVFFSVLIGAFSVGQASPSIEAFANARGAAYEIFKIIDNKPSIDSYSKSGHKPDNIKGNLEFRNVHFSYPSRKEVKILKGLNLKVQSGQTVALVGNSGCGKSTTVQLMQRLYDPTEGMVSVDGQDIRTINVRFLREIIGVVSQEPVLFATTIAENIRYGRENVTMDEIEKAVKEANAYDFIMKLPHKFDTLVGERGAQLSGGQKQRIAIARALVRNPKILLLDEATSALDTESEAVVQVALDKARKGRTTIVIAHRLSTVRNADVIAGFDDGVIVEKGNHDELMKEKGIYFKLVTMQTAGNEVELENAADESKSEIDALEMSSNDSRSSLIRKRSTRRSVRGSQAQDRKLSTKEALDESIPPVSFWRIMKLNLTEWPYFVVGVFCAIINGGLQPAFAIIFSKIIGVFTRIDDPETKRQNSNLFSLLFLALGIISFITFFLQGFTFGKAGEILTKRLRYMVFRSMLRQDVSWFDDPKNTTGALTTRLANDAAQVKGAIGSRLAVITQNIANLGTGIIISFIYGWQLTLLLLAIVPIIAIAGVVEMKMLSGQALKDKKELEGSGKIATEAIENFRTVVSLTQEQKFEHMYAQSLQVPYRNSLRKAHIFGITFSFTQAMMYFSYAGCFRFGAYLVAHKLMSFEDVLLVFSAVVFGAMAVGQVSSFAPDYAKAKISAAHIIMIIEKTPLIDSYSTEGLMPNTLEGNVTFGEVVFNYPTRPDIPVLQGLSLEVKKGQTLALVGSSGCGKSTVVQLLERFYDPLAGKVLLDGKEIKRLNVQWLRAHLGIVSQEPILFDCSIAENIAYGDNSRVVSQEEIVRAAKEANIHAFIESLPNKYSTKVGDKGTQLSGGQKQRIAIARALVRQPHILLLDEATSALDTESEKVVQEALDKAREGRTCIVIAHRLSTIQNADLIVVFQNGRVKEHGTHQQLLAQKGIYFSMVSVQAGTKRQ
A further series has as its target T2, CYP2C8 (Homo sapiens, UniProt P10632).
T2 sequence (P10632 1-490): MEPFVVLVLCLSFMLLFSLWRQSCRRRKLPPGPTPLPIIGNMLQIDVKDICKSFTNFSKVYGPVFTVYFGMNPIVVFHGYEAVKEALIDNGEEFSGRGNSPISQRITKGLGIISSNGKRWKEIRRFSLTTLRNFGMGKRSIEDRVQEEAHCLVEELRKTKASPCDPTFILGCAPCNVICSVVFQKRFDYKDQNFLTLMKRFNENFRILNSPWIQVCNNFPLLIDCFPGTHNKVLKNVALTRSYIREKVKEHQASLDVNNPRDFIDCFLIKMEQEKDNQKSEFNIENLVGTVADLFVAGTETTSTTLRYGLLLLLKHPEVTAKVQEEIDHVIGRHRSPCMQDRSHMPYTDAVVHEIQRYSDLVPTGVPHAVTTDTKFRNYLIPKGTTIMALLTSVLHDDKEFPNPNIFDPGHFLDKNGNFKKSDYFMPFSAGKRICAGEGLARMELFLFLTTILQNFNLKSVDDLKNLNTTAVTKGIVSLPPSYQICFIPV
In words: In vitro CYP inhibition.

Series [6] can be described thus: Leuprolide PK sub-study in mCSPC subjects receiving leuprolide acetate. Format: in vivo, human. An excerpt:
Optional PK samples were/will be collected from at least 60 consenting subjects (in selected countries) who received or will receive leuprolide acetate as the GnRHa at the time of randomization. Samples were/will be collected on Day 1 of Cycles 1, 3, 4, 5, and 6 for analysis of leuprolide and testosterone concentrations.
Descriptive statistics of leuprolide PK data will be summarized by treatment groups (with apalutamide or placebo) and dose of leuprolide acetate. […] The percentage of subjects with testosterone levels <50 ng/dL will be summarized descriptively by treatment groups.

Series [7] is described as follows: Solubility in aqueous media. Format: physicochemical. Conditions: aqueous media over a wide range of pH values. The text has this:
The chemical name is (4-[7-(6-Cyano-5-trifluoromethylpyridin-3-yl)-8-oxo-6-thioxo-5,7-diazaspiro[3.4]oct-5-yl]-2-fluoro-N-methylbenzamide). Apalutamide is a white to slightly yellow powder.

Series [8] concerns the target organic anion transporter 3 (OAT3) (Homo sapiens, UniProt Q8TCC7). Briefly: In vitro transporter inhibition.

Chain of organic anion transporter 3 (OAT3) (Q8TCC7 whole entry): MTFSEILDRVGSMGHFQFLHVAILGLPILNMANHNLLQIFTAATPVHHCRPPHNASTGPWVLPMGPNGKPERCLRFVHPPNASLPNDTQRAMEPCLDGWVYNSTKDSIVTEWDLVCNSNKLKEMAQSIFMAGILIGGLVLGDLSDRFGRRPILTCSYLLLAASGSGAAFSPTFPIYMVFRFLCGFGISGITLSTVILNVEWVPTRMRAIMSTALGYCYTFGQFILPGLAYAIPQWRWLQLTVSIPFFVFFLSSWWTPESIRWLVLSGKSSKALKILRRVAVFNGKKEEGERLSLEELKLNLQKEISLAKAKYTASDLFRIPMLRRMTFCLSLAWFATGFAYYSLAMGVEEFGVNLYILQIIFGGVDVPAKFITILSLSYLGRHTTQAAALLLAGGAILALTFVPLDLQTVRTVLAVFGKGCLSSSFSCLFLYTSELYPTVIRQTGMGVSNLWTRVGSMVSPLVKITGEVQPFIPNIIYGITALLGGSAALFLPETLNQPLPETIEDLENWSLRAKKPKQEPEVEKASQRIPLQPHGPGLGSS
Chain of organic anion transporter 1 (Q4U2R8 whole entry): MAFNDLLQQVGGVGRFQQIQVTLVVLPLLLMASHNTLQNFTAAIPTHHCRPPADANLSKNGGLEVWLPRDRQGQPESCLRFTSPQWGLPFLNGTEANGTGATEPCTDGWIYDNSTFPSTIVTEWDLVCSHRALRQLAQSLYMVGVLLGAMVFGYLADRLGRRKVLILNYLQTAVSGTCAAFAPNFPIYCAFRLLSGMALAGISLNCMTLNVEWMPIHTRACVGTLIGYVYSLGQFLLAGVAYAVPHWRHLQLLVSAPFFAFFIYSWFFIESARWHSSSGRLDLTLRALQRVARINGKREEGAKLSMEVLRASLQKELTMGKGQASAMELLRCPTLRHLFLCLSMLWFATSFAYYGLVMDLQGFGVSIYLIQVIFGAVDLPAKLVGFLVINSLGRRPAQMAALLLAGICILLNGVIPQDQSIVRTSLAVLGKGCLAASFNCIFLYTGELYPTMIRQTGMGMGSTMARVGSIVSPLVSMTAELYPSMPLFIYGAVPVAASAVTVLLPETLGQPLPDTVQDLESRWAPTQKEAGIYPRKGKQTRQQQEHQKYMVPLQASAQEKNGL

Take `CNC(=O)c1ccc(N2C(=S)N(c3cnc(C#N)c(C(F)(F)F)c3)C(=O)C23CCC3)cc1F` [Apalutamide, 4-[7-(6-cyano-5-trifluoromethylpyridin-3-yl)-8-oxo-6-thioxo-5,7-diazaspiro[3.4]oct-5-yl]-2-fluoro-N-methylbenzamide]: in the series with male rats (4 weeks of administration), the “Dose at which a reduced number of live fetuses due to increased pre- and/or post-implantation loss was observed” value is reported as 150 mg/kg/day. Moreover, the “Dose at which decreased sperm concentration and motility, abnormal sperm morphology, lower copulation and fertility rates, reduced secondary sex gland and epididymis weights were observed” value in the series on male rats (4 weeks of dosing) is at least 25 mg/kg/day. For the same compound, the “Time after last administration at which effects on male rats were reversible” value with male rats (rat, in vivo) amounted to 8 weeks. Besides, in [1], the Genotoxicity result is “not genotoxic”. The “Induction of BCRP and OATP1B1, clinically” value in the series with BCRP/OATP1B1 was “weak inducer”. In [2], the Tumor response result was “partial or complete tumor regression”. The CYP3A4 inhibition entry at CYP3A4 [3] is “weak inhibitors”. For the same compound, the entries for the “Contribution of CYP3A4 in the metabolism of apalutamide” value on CYP3A4 [4] (at steady-state) and at CYP3A4 [4] (following single dose) were 37% and 13%, respectively. For the same compound, the “Inhibition of organic anion transporter 1” value in [5] is recorded as “do not inhibit”. Moreover, at P-gp, the “Substrate for P-gp” value is listed as “substrates”. At CYP2C8, the CYP2C8 inhibition entry is “moderate inhibitors”. The “Effect on the steady-state exposure of leuprolide” value in [6] is “no apparent effect”. Also, the Solubility entry in [7] was “practically insoluble”. Besides, the “Inhibition of OAT3” value in [8] was “inhibit”.
